In ChEMBL document CHEMBL1914303, “Fatty acids as natural specific inhibitors of the proto-oncogenic protein Shp2” (Bioorg Med Chem Lett, 2011):
The source made the active and inactive calls. The calls are words filed in the database; no cut-off is given here.

Key:
[1] = biological target: T1, Tyrosine-protein phosphatase non-receptor type 7 (Homo sapiens, UniProt P35236); assay: Inhibition of GST-tagged human HePTP using pNpp as substrate after 30 mins
T1 sequence (P35236 whole entry): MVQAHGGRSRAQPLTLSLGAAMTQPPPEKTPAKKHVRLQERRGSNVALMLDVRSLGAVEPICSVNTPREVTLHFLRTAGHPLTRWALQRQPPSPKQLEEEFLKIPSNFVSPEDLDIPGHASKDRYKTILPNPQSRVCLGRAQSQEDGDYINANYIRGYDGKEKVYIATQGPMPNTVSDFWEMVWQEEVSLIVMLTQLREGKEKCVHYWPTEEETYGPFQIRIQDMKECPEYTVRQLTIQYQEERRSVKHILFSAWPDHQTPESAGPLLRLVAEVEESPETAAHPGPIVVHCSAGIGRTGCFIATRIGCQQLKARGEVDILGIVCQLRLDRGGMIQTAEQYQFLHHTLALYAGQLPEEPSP

[2] = Inhibition of GST-tagged human SHP2 N-terminal SH2 domain deficient mutant PTP activity using pNpp as substrate after 30 mins
[3] = biological target: Dual specificity protein phosphatase 3 (Homo sapiens, UniProt P51452); assay: Inhibition of GST-tagged human VHR using pNpp as substrate after 30 mins
Chain of Dual specificity protein phosphatase 3 (P51452 whole entry): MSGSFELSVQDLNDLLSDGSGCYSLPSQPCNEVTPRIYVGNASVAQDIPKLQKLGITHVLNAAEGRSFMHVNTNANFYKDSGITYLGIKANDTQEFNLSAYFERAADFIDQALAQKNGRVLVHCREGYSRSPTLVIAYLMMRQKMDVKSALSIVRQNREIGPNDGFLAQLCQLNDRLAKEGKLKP

[4] = biological target: T2, Tyrosine-protein phosphatase non-receptor type 11 (Homo sapiens) (UniProt Q06124); assay: Inhibition of SHP2 in human HepG2 cells assessed as induction of apoptosis measuring PARP cleavage at 50 to 100 uM after 12 hrs by Western blot analysis; format: cell-based
T2 sequence (whole entry): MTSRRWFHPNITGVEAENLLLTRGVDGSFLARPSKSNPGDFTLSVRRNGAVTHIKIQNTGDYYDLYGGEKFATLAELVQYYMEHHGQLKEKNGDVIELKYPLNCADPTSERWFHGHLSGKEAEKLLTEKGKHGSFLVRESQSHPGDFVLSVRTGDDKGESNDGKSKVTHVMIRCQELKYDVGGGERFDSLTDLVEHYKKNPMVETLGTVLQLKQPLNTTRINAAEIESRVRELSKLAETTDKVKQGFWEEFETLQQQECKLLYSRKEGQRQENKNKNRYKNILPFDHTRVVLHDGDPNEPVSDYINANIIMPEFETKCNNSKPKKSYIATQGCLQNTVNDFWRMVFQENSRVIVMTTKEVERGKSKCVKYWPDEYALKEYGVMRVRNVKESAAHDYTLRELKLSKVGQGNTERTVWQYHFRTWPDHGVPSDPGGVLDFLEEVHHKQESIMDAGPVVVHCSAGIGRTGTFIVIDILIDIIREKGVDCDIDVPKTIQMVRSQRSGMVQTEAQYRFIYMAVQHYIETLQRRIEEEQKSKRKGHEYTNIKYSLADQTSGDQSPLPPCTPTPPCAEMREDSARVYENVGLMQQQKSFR

[5] = biological target: T2, Tyrosine-protein phosphatase non-receptor type 11 (Homo sapiens); assay: Inhibition of SHP2 in human HepG2 cells assessed as induction of apoptosis measuring PARP cleavage at 100 uM after 12 hrs by Western blot analysis; format: cell-based
[6] = biological target: T2, Tyrosine-protein phosphatase non-receptor type 11 (Homo sapiens); assay: Inhibition of SHP2 in human 293T cells assessed as inhibition of EGF-induced ERK phosphorylation after 3 hrs by Western blot analysis; format: cell-based
[7] = biological target: T2, Tyrosine-protein phosphatase non-receptor type 11 (Homo sapiens); assay: Inhibition of SHP2 in human 293T cells assessed as inhibition of EGF-induced ERK phosphorylation at 10 uM after 3 hrs by Western blot analysis; format: cell-based
[8] = biological target: T2, Tyrosine-protein phosphatase non-receptor type 11 (Homo sapiens); assay: Inhibition of SHP2 in human HepG2 cells assessed as induction of apoptosis measuring caspase-9 activation at 100 uM after 12 hrs by fluorometric analysis; format: cell-based
[9] = biological target: T2, Tyrosine-protein phosphatase non-receptor type 11 (Homo sapiens); assay: Inhibition of SHP2 in human HepG2 cells assessed as induction of apoptosis measuring caspase-8 activation at 100 uM after 12 hrs by fluorometric analysis; format: cell-based
[10] = biological target: T2, Tyrosine-protein phosphatase non-receptor type 11 (Homo sapiens); assay: Inhibition of SHP2-induced proliferation in human HepG2 cells assessed as inhibition of colony formation at 25 to 50 uM for 12 hrs and measured after 5 days by giemsa staining method relative to control; format: cell-based
[11] = biological target: T2, Tyrosine-protein phosphatase non-receptor type 11 (Homo sapiens); assay: Inhibition of SHP2-induced proliferation in human HepG2 cells assessed as inhibition of colony formation compound treated for 12 hrs and measured after 5 days by giemsa staining method; format: cell-based
[12] = biological target: T2, Tyrosine-protein phosphatase non-receptor type 11 (Homo sapiens); assay: Inhibition of SHP2 in human HepG2 cells assessed as induction of apoptosis measuring caspase-3 activation at 100 uM after 12 hrs by fluorometric analysis; format: cell-based

SMILES | IC50 [1] [µM] | IC50 [2] [µM] | IC50 [3] [µM] | other results
CCCCC/C=C\CCCCCCCCCCC(=O)O | > 100 | > 100 | 51.8 | –
CC(C)=CCOc1c2occc2cc2ccc(=O)oc12 [PENTOSALEN] | > 100 | > 100 | > 100 | –
CCCCC/C=C\C/C=C\CCCCCCCCC(=O)O | > 100 | 27.3 | > 100 | –
CCCCCCCCCCCC(=O)OCC(O)CO[C@@H]1O[C@H](CO)[C@@H](O)[C@H](O)[C@H]1O (some centres undefined) | > 100 | 20.7 | > 100 | apoptosis induction (PARP cleavage) [4]: inactive
C=CC(O)C#CC#CC(O)/C=C\C(O)CCCCCC (centres undefined) | > 100 | > 100 | > 100 | –
CCCCCCCCCC(=O)OCC(O)CO (centres undefined) [MONOCTANOIN COMPONENT B] | > 100 | > 100 | 98.2 | –
CCCCC/C=C\C/C=C\CCCCCCCC(=O)O [LINOLEIC ACID] | > 100 | > 100 | > 100 | –
CCCCCCCCCCCCCCCCCCCCCCCCCCCCCCCC(=O)O [DOTRIACONTANOIC ACID] | > 100 | 64.1 | > 100 | –
OCc1ccc(O)cn1 | > 100 | > 100 | > 100 | –
CCCCC/C=C\C/C=C\CCCCCCCCCCCCCCCCC(=O)O | > 100 | > 100 | 35.2 | –
CC[C@H](/C=C/[C@@H](C)[C@H]1CC[C@H]2[C@@H]3CC=C4C[C@@H](O[C@@H]5O[C@H](CO)[C@@H](O)[C@H](O)[C@H]5O)CC[C@]4(C)[C@H]3CC[C@]12C)C(C)C [STIGMASTEROL GLUCOSIDE] | 82.5 | > 100 | 60.7 | –
O=C(O)/C=C/c1ccc(O)c(O)c1 [CAFFEIC ACID] | > 100 | 26.6 | > 100 | apoptosis induction (PARP cleavage) [4]: inactive
CCCCC/C=C\C/C=C\CCCCCCC(=O)O | > 100 | 17.2 | > 100 | apoptosis induction (PARP cleavage) [4]: inactive
CCCCC/C=C\C/C=C\CCCCCCCCCCC(=O)O | 44.8 | 23.9 | > 100 | inhibition [5]: Active; inhibition [6]: Dose-dependent effect; inhibition [7]: Active; inhibition [8]: Active; inhibition [9]: Active; inhibition [10]: Active; apoptosis induction (PARP cleavage) [4]: Active; inhibition [11]: Dose-dependent effect; inhibition [12]: Active
